pIC50: −log10 of the molar value.
What follows are compounds tested against Glutamate NMDA receptor; Grin1/Grin2b (Rattus norvegicus, UniProt P35439+Q00960) (assay: Inhibition of rat recombinant NR1/NR2B receptor expressed in Xenopus oocytes assessed as inhibition of glutamate and glycine-induced evoked current by two electrode voltage clamp method).
Type: cell-based, Oocyte

Sequence of Glutamate NMDA receptor; Grin1/Grin2b (Q00960 whole entry, other chains not shown): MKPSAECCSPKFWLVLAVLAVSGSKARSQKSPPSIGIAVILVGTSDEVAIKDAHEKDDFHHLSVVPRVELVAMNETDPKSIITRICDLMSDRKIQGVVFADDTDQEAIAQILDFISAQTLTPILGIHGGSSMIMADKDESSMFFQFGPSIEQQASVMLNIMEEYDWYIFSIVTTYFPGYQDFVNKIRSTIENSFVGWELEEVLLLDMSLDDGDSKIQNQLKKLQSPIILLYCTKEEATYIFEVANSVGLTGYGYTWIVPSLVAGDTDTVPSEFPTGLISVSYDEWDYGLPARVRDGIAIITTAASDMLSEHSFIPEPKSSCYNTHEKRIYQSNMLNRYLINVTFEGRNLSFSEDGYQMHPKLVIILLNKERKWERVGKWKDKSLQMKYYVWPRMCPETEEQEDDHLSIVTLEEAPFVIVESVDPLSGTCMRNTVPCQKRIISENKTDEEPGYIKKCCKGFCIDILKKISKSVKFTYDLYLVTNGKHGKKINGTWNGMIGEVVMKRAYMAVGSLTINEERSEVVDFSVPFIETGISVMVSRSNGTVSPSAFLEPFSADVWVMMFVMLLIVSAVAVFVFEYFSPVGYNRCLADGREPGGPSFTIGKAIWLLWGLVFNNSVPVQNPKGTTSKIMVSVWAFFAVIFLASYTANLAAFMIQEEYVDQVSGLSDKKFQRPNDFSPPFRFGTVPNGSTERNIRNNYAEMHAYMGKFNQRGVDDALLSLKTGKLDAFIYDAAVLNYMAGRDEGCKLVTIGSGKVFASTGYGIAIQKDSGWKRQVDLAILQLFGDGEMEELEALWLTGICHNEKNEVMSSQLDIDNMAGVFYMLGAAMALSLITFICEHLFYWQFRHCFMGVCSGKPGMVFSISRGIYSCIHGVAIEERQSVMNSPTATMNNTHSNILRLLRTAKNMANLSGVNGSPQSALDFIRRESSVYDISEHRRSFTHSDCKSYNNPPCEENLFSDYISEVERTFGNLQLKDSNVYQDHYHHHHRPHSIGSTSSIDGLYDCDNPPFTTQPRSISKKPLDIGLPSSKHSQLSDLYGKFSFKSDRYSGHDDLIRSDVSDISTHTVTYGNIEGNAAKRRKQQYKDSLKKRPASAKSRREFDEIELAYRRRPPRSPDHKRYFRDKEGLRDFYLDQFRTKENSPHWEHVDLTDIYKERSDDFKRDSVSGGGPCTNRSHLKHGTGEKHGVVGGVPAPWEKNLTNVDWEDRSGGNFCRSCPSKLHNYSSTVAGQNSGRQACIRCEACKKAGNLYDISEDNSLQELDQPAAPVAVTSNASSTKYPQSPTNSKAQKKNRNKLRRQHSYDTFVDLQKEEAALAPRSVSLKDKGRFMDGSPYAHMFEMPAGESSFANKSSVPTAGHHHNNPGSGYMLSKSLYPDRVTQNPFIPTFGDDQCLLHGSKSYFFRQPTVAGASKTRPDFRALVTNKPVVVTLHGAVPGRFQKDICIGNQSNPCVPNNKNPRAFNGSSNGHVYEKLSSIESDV

| Structure (SMILES) | pIC50 |
| --- | --- |
| CS(=O)(=O)Nc1ccc(OC[C@@H](O)CNCCc2ccc(O)c(O)c2)cc1 | < 4.00 |
| CS(=O)(=O)Nc1ccc(OC[C@@H](O)CNCCc2cccc(O)c2)cc1 | 5.35 |
| COc1cccc(OC)c1CN(CCc1ccc(Cl)c(Cl)c1)C[C@H](O)COc1ccc(NS(C)(=O)=O)cc1 | 4.92 |
| CS(=O)(=O)Nc1ccc(OC[C@@H](O)CN(CCc2ccc(Cl)c(Cl)c2)Cc2ccccc2[N+](=O)[O-])cc1 | 6.23 |
| CS(=O)(=O)Nc1ccc(OC[C@@H](O)CN(CCc2ccc(Cl)c(Cl)c2)Cc2ccccc2C(F)(F)F)cc1 | 5.43 |
| CS(=O)(=O)Nc1ccc(OC[C@@H](O)CNCCc2ccc(O)cc2)cc1 | 5.14 |
| CS(=O)(=O)Nc1ccc(OC[C@@H](O)CN(CCc2ccc(Cl)c(Cl)c2)Cc2c(F)c(F)c(F)c(F)c2F)cc1 | 6.28 |
| CCCS(=O)(=O)Nc1ccc(OC[C@@H](O)CNCCc2ccc(Cl)c(Cl)c2)cc1 | 5.21 |
| CCCCCN(CCc1ccc(Cl)c(Cl)c1)C[C@H](O)COc1ccc(NS(C)(=O)=O)cc1 | 6.18 |
| CS(=O)(=O)Nc1ccc(OC[C@@H](O)CN(CCc2ccc(Cl)c(Cl)c2)Cc2ccc(F)cc2)cc1 | 6.56 |
| CS(=O)(=O)Nc1ccc(OC[C@@H](O)CN(CCc2ccc(Cl)c(Cl)c2)Cc2cccc(F)c2)cc1 | 6.60 |
| CS(=O)(=O)Nc1ccc(OC[C@@H](O)CN(CCc2ccc(Cl)c(Cl)c2)Cc2ccc(O)cc2)cc1 | 6.95 |
| CCCCN(CCc1ccc(Cl)c(Cl)c1)C[C@@H](O)COc1ccc(NS(C)(=O)=O)cc1 | 5.89 |
| O=C(Nc1ccc(OC[C@@H](O)CNCCc2ccc(Cl)c(Cl)c2)cc1)C(Cl)(Cl)Cl | 4.97 |
| Cc1ccc(CN(CCc2ccc(Cl)c(Cl)c2)C[C@H](O)COc2ccc(NS(C)(=O)=O)cc2)cc1 | 5.27 |
| COc1cccc(CN(CCc2ccc(Cl)c(Cl)c2)C[C@H](O)COc2ccc(NS(C)(=O)=O)cc2)c1OC | 5.55 |
| CS(=O)(=O)Nc1ccc(OC[C@@H](O)CN(CCc2ccc(Cl)c(Cl)c2)Cc2ccccc2)cc1 | 6.75 |
| CS(=O)(=O)Nc1ccc(OC[C@@H](O)CNCCc2ccccc2Cl)cc1 | 6.37 |
| CN(CCc1ccc(Cl)c(Cl)c1)C[C@@H](O)COc1ccc(NS(C)(=O)=O)cc1 | 6.60 |
| CS(=O)(=O)Nc1ccc(OC[C@H](O)CN(CCc2ccc(Cl)c(Cl)c2)Cc2cccc(O)c2)cc1 | 6.39 |
| CS(=O)(=O)Nc1ccc(OC[C@@H](O)CN(CCc2ccc(Cl)c(Cl)c2)CC2CCCCC2)cc1 | 5.01 |

| Structure (SMILES) | pIC50 |
| --- | --- |
| CS(=O)(=O)Nc1ccc(OC[C@@H](O)CNCCc2cccc(Cl)c2)cc1 | 6.20 |
| CS(=O)(=O)Nc1ccc(OC[C@@H](O)CN(CCc2ccc(Cl)c(Cl)c2)Cc2cccc3c2OCO3)cc1 | 5.30 |
| CC(C)N(CCc1ccc(Cl)c(Cl)c1)C[C@H](O)COc1ccc(NS(C)(=O)=O)cc1 | 6.22 |
| CN(c1ccc(OC[C@@H](O)CNCCc2ccc(Cl)c(Cl)c2)cc1)S(C)(=O)=O | 5.00 |
| CS(=O)(=O)Nc1ccc(OC[C@@H](O)CN(CCc2ccc(Cl)c(Cl)c2)Cc2ccc(O)cc2O)cc1 | 6.84 |
| CS(=O)(=O)Nc1ccccc1OC[C@@H](O)CNCCc1ccc(Cl)c(Cl)c1 | 4.92 |
| CS(=O)(=O)Nc1ccc(OC[C@@H](O)CNCCc2cc(O)cc(O)c2)cc1 | < 4.00 |
| CS(=O)(=O)Nc1ccc(OC[C@@H](O)CNCCc2ccc([N+](=O)[O-])cc2)cc1 | 5.94 |
| CS(=O)(=O)Nc1ccc(OC[C@@H](O)CNCCc2ccc3c(c2)OCO3)cc1 | 6.02 |
| Cc1cc(OC[C@@H](O)CNCCc2ccc(Cl)c(Cl)c2)ccc1NS(C)(=O)=O | 6.16 |
| CS(=O)(=O)Nc1ccc(OC[C@@H](O)CNCCc2ccc(Cl)c(Cl)c2)cc1F | 6.37 |
| CC(=O)Oc1ccccc1CN(CCc1ccc(Cl)c(Cl)c1)C[C@H](O)COc1ccc(NS(C)(=O)=O)cc1 | 6.30 |
| CS(=O)(=O)Nc1ccc(OC[C@H](O)CN(CCO)CCc2ccc(Cl)c(Cl)c2)cc1 | 6.76 |
| CS(=O)(=O)Nc1ccc(OC[C@@H](O)CNCCc2ccccc2O)cc1 | 5.70 |
| COc1ccccc1CN(CCc1ccc(Cl)c(Cl)c1)C[C@H](O)COc1ccc(NS(C)(=O)=O)cc1 | 5.41 |
| CCS(=O)(=O)Nc1ccc(OC[C@@H](O)CNCCc2ccc(Cl)c(Cl)c2)cc1 | 6.23 |
| CS(=O)(=O)Nc1ccc(OC[C@H](O)CNCCc2ccc(Cl)c(Cl)c2)cc1 | 6.73 |
| CS(=O)(=O)Nc1ccc(OC[C@@H](O)CN(CCc2ccccc2)CCc2ccc(Cl)c(Cl)c2)cc1 | 5.45 |
| CS(=O)(=O)Nc1ccc(OC[C@@H](O)CN(CCc2ccc(Cl)c(Cl)c2)CCc2ccccc2O)cc1 | 6.12 |
| CCCN(CCc1ccc(Cl)c(Cl)c1)C[C@H](O)COc1ccc(NS(C)(=O)=O)cc1 | 6.20 |
| CS(=O)(=O)Nc1ccc(OC[C@@H](O)CNCCc2ccc(Cl)c(Cl)c2)c(F)c1 | 7.14 |

| Structure (SMILES) | pIC50 |
| --- | --- |
| O=[N+]([O-])c1ccc(OC[C@@H](O)CNCCc2ccc(Cl)c(Cl)c2)cc1 | 5.03 |
| CS(=O)(=O)Nc1ccc(OC[C@@H](O)CN(CCc2ccc(Cl)c(Cl)c2)Cc2nccs2)cc1 | 5.45 |
| CS(=O)(=O)Nc1ccc(OC[C@@H](O)CN(CCc2ccc(Cl)c(Cl)c2)Cc2cccnc2)cc1 | 6.56 |
| CS(=O)(=O)Nc1ccc(OC[C@@H](O)CNCCc2ccc(F)cc2)cc1 | 6.13 |
| CS(=O)(=O)Nc1ccc(OC[C@@H](O)CNCCc2ccccc2F)cc1 | 6.24 |
| CS(=O)(=O)Nc1ccc(OC[C@H](O)CN(CCc2ccc(Cl)c(Cl)c2)Cc2ccccc2O)cc1 | 6.36 |
| CS(=O)(=O)Nc1ccc(OC[C@@H](O)CN(CCc2ccc(Cl)c(Cl)c2)Cc2ccccc2Br)cc1 | 7.42 |
| CS(=O)(=O)Nc1ccc(OC[C@@H](O)CN(CCc2ccc(Cl)c(Cl)c2)Cc2cccc(O)c2O)cc1 | 5.74 |
| O=S(=O)(Nc1ccc(OC[C@@H](O)CNCCc2ccc(Cl)c(Cl)c2)cc1)c1ccccc1 | 5.84 |
| CS(=O)(=O)Nc1ccc(OC[C@@H](O)CNCCc2ccc(Cl)cc2Cl)cc1 | 5.64 |
| CS(=O)(=O)Nc1ccc(OC[C@@H](O)CN(CCc2ccc(Cl)c(Cl)c2)Cc2c(F)cccc2F)cc1 | 6.55 |
| CCCCS(=O)(=O)Nc1ccc(OC[C@@H](O)CNCCc2ccc(Cl)c(Cl)c2)cc1 | 5.17 |
| CS(=O)(=O)Nc1ccc(OC[C@@H](O)CNCCc2ccc(F)c(Cl)c2)cc1 | 6.40 |
| CS(=O)(=O)Nc1ccc(OC[C@@H](O)CNCCc2cccc(F)c2)cc1 | 6.07 |
| CC(=O)Nc1ccc(OC[C@@H](O)CNCCc2ccc(Cl)c(Cl)c2)cc1 | 5.36 |
| Cc1ccccc1CN(CCc1ccc(Cl)c(Cl)c1)C[C@H](O)COc1ccc(NS(C)(=O)=O)cc1 | 5.24 |
| CS(=O)(=O)Nc1ccc(OC[C@@H](O)CN(CCc2ccc(Cl)c(Cl)c2)Cc2ccccc2Cl)cc1 | 6.32 |
| C[C@H](NC[C@H](O)COc1ccc(NS(C)(=O)=O)cc1)c1cccc2ccccc12 | 5.29 |
| O=C(Nc1ccc(OC[C@@H](O)CNCCc2ccc(Cl)c(Cl)c2)cc1)C(Cl)Cl | 4.89 |
| CS(=O)(=O)Nc1cccc(OC[C@@H](O)CNCCc2ccc(Cl)c(Cl)c2)c1 | 6.28 |

Reference: ChEMBL document CHEMBL1140127, “Enantiomeric propanolamines as selective N-methyl-D-aspartate 2B receptor antagonists” (J Med Chem, 2008)
